Columns and labels:
[1] = tested on: Arabidopsis thaliana plants (wild-type, yucca6-1D, yucca6-2D); assay: Resistance to the toxic Trp analog 5-methyl-Trp in MS medium; type: in vivo; conditions: MS medium containing 80 NM 5-methyl-Trp
Excerpt: It has been proposed that plants use […] and Trp-independent routes to synthesize auxin (Normanly et al., 1993; Müller and Weiler, 2000; Woodward and Bartel, 2005). To investigate in which pathway YUCCA6 may participate, we tested the resistance of yucca6-1D and yucca6-2D to the toxic Trp analog, 5-methyl-Trp.

[2] = tested on: YUCCA2 gene expression; assay: YUCCA2 gene expression after ABA treatment (RT-PCR); type: in vivo, Arabidopsis thaliana; conditions: RNA from 2-week old seedlings including roots
Description: (§1) YUCCA gene expression was checked by RT-PCR. RNA was prepared from 2-week old seedlings including roots. […] UBC was used as a loading control.
(§2) Arabidopsis YUCCA6 is one of 11 yucca family members. YUCCA6 belongs to the same sub-family with YUCCA2. We determined if YUCCA6 gene expression is regulated by ABA.

[3] = tested on: YUCCA6 gene expression; assay: YUCCA6 gene expression after hormone treatment (RT-PCR); type: in vivo, Arabidopsis thaliana; conditions: RNA from 2-week old seedlings including roots
Description: as §1, §2

[4] = tested on: YUCCA 1 gene expression; assay: YUCCA1 gene expression after ABA treatment (RT-PCR); type: in vivo, Arabidopsis thaliana; conditions: RNA from 2-week old seedlings including roots
Description: as §1, §2

[5] = target: T1, MBP:YUCCA6 fusion protein (Arabidopsis thaliana, UniProt Q8VZ59); assay: Recombinant YUCCA6 enzyme activity (substrate-dependent NADPH oxidation); type: biochemical; conditions: tryptamine as a substrate; 0.1 mM NADPH, pH 8.0, 22° C.
T1 construct: The full-length YUCCA6 ORF was synthesized from Col-0 cDNA by PCR amplification and subcloned into the expression vector pMAL-c2; made in house; host or cells: Escherichia coli BL21
T1 sequence (Q8VZ59 1-417): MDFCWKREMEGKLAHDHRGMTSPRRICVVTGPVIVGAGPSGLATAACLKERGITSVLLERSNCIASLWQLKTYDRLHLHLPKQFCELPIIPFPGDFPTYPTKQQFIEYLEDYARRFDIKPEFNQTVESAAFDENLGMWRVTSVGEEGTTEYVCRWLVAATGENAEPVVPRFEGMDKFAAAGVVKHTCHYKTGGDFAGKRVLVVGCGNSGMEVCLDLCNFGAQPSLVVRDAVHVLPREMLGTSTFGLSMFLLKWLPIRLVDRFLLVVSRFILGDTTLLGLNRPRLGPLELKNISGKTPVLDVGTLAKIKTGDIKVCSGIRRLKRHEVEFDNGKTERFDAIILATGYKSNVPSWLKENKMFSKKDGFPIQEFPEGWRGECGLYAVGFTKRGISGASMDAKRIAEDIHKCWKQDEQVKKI
Excerpt: (§3) It has been reported that maltose-binding protein (MBP):YUCCA1 fusion proteins have catalytic activity to convert tryptamine to N-hydroxyl tryptamine (Zhao et al., 2001). To investigate if YUCCA6 also is involved in oxidation of tryptamine, we tested YUCCA6 activity with MBP:YUCCA6 fusion protein expressed in and purified from bacteria. It is known that FMOs oxidize NADPH by transfer of electrons to oxygen. […] The catalytic activity of YUCCA6 for oxidation of tryptamine, together with resistance of yucca6 mutants to 5-methyl-Trp, strongly implies that YUCCA6 has an important function in Trp-dependent auxin biosynthesis.
(§4) The full-length YUCCA6 ORF was synthesized from Col-0 cDNA by PCR amplification and subcloned into the expression vector pMAL-c2. […] The protein contents were measured using BIO-RAD Protein Assay (no. 500-0006), and protein was separated by SDS-PAGE.
(§5) The activities of MBP:YUCCA6 and MBP proteins were measured by determining the rates of substrate-dependent NADPH oxidation consumption. […] The rates of NADPH oxidation caused by addition of tryptamine were monitored at 340 nm for 5 minutes at 22° C. using a UV-visible spectrophotometer (model UV-1601; Shimazu). The change in absorbance per minute was converted to micromoles NADPH consumed per minute using the extinction coefficient 6,220 M^−1 cm^−1 for NADPH. […]

[6] = substrate: NCCc1c[nH]c2ccccc12; assay: as above; type: biochemical, Arabidopsis thaliana; conditions: other: tryptamine as a substrate, 0.1 mM NADPH, pH 8.0, 22° C.
Excerpt: as §3, §4, §5

For Cc1ccc2[nH]cc(C[C@H](N)C(=O)O)c2c1 [5-methyl-Trp], the “survival and growth of wild-type plants” value ([1]; wild-type plants) was “could not”, the “survival and growth of yucca6-1D plants” value ([1]; yucca6-1D) was “could survive and grow” and the “survival and growth of yucca6-2D plants” value ([1]; yucca6-2D) was “could survive and grow”.

For CC1=CC(=O)CC(C)(C)[C@@]1(O)/C=C/C(C)=C\C(=O)O [ABA, Abscisic Acid], the “regulation of YUCCA2 gene expression” value [2] was “down-regulated”, the “regulation of YUCCA6 transcript level” value [3] was “down-regulated” and the “regulation of YUCCA 1 gene expression” value [4] was “does not change”.

For NC1(C(=O)O)CC1 [ACC, 1-aminocylopropane-1-carboxylic acid], the “regulation of YUCCA6 transcript level” value [3] was “could not regulate”.

NCCc1c[nH]c2ccccc12 [tryptamine] showed a Vmax [5] of 9.46 Nmol NADPH min^−1 mg^−1.

B1: MBP:YUCCA6 fusion protein (Arabidopsis thaliana) (protein)
chain: T1 sequence (Q8VZ59 1-417)
notes: The full-length YUCCA6 ORF was synthesized from Col-0 cDNA by PCR amplification and subcloned into the expression vector pMAL-c2; made in house; host or cells: Escherichia coli BL21
With B1 the Km [6] was 274 µM.

Reference: patent US7763772B2, “Activation of the arabidopsis hypertall (HYT1/YUCCA6) locus affects several auxin mediated responses” (Purdue Research Foundation, priority 2006, dated 2010)
